Results as given in patent US11918691B2, “Local delivery of antineoplastic particles in combination with systemic delivery of immunotherapeutic agents for the treatment of cancer” (CRITITECH, INC., priority 2017, dated 2024).

Assays:
[1] = tested on: human renal cell adenocarcinoma (786-0 cell line); assay: Rat xenograft model of human renal cell adenocarcinoma: histology and immunohistochemistry of residual tumors; type: in vivo, Sprague-Dawley Rag2; Il2rg null (SRG) rat
Procedure: Microscopic Examination: Tissues fixed with 10% NBF were embedded in paraffin. Each tumor was cut into 2-3 pieces and embedded and sectioned together.
The lymphohistiocytic infiltrate density based on assessment of […] and immunohistochemical staining with CD11b, graded semi quantitatively is shown in Table 31.
A review was conducted on the morphologic and immunohistochemical features of a subset of 14 female rats from the renal cell carcinoma study aimed to assess the efficacy of intratumoral NanoDoce® (the total study contained 30 animals). […] The NanoDoce® group was separated into three groups based on the number of administered cycles: group 1 (1 cycle; 3 animals), group 2 (2 cycles; 3 animals), and group 3 (3 cycles; 2 animals).

[2] = tested on: UM-UC-3 bladder cancer cell line (ATCC-CRL-1749) tumors; assay: Human bladder cancer (UM-UC-3) mouse xenograft study: tumor volume, body weight, histology; type: in vivo, Hsd:Athymic Nude-Foxn1nu nude mice
Procedure: Tumor volume was determined with calipers. […] Animals were weighed 2×/week.
At day 18 after tumor implant, when average tumor size was between 50-325 mm^3, animals were sorted into five groups with equal average tumor sizes and were treated as shown in Table 25 below.
For IT administration (Vehicle/NANODOCE®), injections (using 27 G, ½″ needle) were administered at three sites within the tumor (total calculated injection volume based on 40 mg/mL NANODOCE® stock and 25 g mouse=63 μL; split evenly across the three injection sites) to maximize distribution of the test formulation throughout the tumor. The second treatments (2nd cycle) occurred 7 days following first treatment (1st cycle) and third treatments (3rd cycle) occurred 14 days following the first treatment. The docetaxel solution IV was administered via the tail vein.
The test formulations were prepared as follows: • Vehicle (Control): Diluted 1 ml of the 1% Polysorbate 80/8% Ethanol in normal saline (0.9% Sodium Chloride for Injection) reconstitution solution with 1.5 mL of normal saline (0.9% Sodium Chloride for Injection, USP). The final concentration of polysorbate 80 was 0.4% and the final concentration of ethanol was 3.2% in the Vehicle. • NANODOCE® Suspension: Added 1 ml of the 1% Polysorbate 80/8% Ethanol in normal saline (0.9% Sodium Chloride for Injection) reconstitution solution into the vial of NANODOCE® particles powder (100 mg/60 cc vial). The mean particle size (number) of the NANODOCE® particles powder was 1.0 micron. Vigorously hand shook the vial with inversions for 1 minute. […] Vortexed to mix.

[3] = tested on: human renal cell adenocarcinoma (786-0 cell line); assay: Rat xenograft model of human renal cell adenocarcinoma: tumor volume, body weight, observations; type: in vivo, Sprague-Dawley Rag2; Il2rg null (SRG) rat; details: IV, 3 weekly cycles
[4] = Rat xenograft model of human renal cell adenocarcinoma: docetaxel concentration in tumor tissue, LC-MS/MS; type: in vivo, Sprague-Dawley Rag2; Il2rg null (SRG) rat; details: 38 days following the last of three weekly cycles IV (5-[…]); LOQ 1.00 ng/g
Procedure: A calibration curve, prepared in rat control tumor tissue homogenate, was analyzed at the beginning and the end of each analytical run. Two sets of quality control (QC) samples were prepared at four concentration levels (low, mid-1, mid-2 and high) and were used to ensure reliability of the assay.

| Structure (SMILES) | Number of animals with <5% of tissue showing necrosis ([1]; IV docetaxel, 2 animals) | Number of animals with Mild lymphohistiocytic infiltrate density (H&E and CD11b IHC, semi quantitative) ([1]; IV docetaxel, 2 animals) | histology general observations (H&E) ([2]; Docetaxel Solution IV 3 cycles) | initial animal weight loss compared with NanoDoce IT 1, 2 and 3 cycles ([2]; IV 3 cycles) | signs of peripheral neuropathy compared with NanoDoce IT 3 cycles ([2]; IV 3 cycles) | treatment effect relative to initial tumor size ([2]; IV 3 cycles) | tumor volumes over time ([2]; IV 3 cycles (weekly), 61 days) | histology (H&E) compared with vehicle control ([1]; IV 3 cycles, female rat) | Number of animals with residual viable tumor >10 mm (maximum cross-sectional dimension of viable carcinoma on slide) ([1]; IV docetaxel QWX3, 2 animals evaluated) | residual viable carcinoma nodule, maximum dimension on the slide ([1]; both IV docetaxel animals) | morphologic and immunohistochemical appearance ([1]; two IV docetaxel cases (3 cycles)) | tumor growth compared to vehicle control [3] | animals evaluated with a detectable docetaxel level in tumor tissue [4] | docetaxel level in tumor tissue [4] |
| --- | --- | --- | --- | --- | --- | --- | --- | --- | --- | --- | --- | --- | --- | --- |
| CC(=O)O[C@@]12CO[C@@H]1C[C@H](O)[C@@]1(C)C(=O)[C@H](O)C3=C(C)[C@@H](OC(=O)[C@H](O)[C@@H](NC(=O)OC(C)(C)C)c4ccccc4)C[C@@](O)([C@@H](OC(=O)c4ccccc4)[C@H]21)C3(C)C [Doce] | 2 | 2 | – | – | – | – | – | – | – | – | – | – | – | – |
| CC(=O)OC12CO[C@@H]1C[C@H](O)[C@@]1(C)C(=O)[C@H](O)C3=C(C)[C@@H](OC(=O)[C@H](O)[C@@H](NC(=O)OC(C)(C)C)c4ccccc4)C[C@@](O)([C@@H](OC(=O)c4ccccc4)[C@H]21)C3(C)C (some centres unmarked) [Docetaxel, docetaxel] | – | – | many viable appearing tumor masses with some macrophage and occasional lymphocytic response along with some tumor necrosis | generally greater | greater signs of peripheral neuropathy | somewhat effective at treating small tumors, but not very effective in treating large tumors | decreased initially for dosages of NanoDoce® IT 1 cycle and Docetaxel IV 3 cycles, but subsequently increased | no difference | 2 | greater than 10 mm | identical morphologic and immunohistochemical appearance to that seen in the control and IT vehicle groups | partial tumor growth inhibition | one of four | 21.8 ng/g |
